Legend:
[1] = biological target: Platelet-derived growth factor receptor beta (Homo sapiens, UniProt P09619); experiment: PDGFRβ HTRF Assay
Experimental: Stock Solutions:Assay buffer stock solution, contains 50 mM Hepes, 10 mM MgCl2, 1 mM EGTA, and 0.01% Brij-35, 0.01% ovalbumin, 2 mM DTT at pH 7.5, in molecular biology grade water. […] Store at −80° C. in aliquots.TK-biotin peptide, 0.5 μM in molecular biology grade water, store at −20° C. in aliquots.ATP, 100 mM in molecular biology grade water, store at −20° C. in aliquots.HTRF KinEASE-TK kit: Allow the contents of the Cisbio kit to warm up to room temperature before use. This kit contains HTRF detection buffer, TK-Antibody labeled with Eu3+-cryptate, TK-substrate biotin and Streptavidin-XL665.TK Substrate-Biotin, reconstitute 500 μg lyopholized with 574 μL molecular biology grade water to prepare a 500 μM stock; After use, aliquot the rest and store at −20° C.TK Antibody-Cryptate, reconstitute lyophilized with 1 mL of molecular biology grade water (100× solution) then add 99 mL detection buffer to prepare a ready to use TK-antibody-cryptate solution; the concentration of the TK-antibody-cryptate reagent is not known.

[2] = biological target: Vascular endothelial growth factor receptor 2 (Homo sapiens, UniProt P35968); experiment: VEGFR ADP GLO Assay
Experimental: Assay Procedure:Step 1. Dispensing inhibitors/controls: Using Echo, dispense 10 nL/well compound serial dilutions in DMSO to columns 1-22 (in 384-well plates) or columns 1-44 (in 1536-well plates). Dilution series=11 pt, 3-fold dilutions. The top compound concentration in the source plate is 4 mM. The top compound concentration in the assay plate is 10 uM. Using Echo, dispense 10 nl/well DMSO to column 23 (in 384-well plates) or columns 45-47 (in 1536-well plates). These wells will serve as negative control wells Using Echo, dispense 10 nl/well 400 uM TAK-593 in DMSO to column 24 (in 384-well plates) or column 48 (in 1536-well plates). The final concentration of TAK-593 in the assay should be 1 uM. These wells will serve as positive control wells.Step 2. Pre-incubation of inhibitors with kinase: Add 2 μL/well 2× kinase solution. Centrifuge at 1000 rpm for 1 min. Incubate at room temperature for 30 min.Step 3. Kinase cascade reaction: Add 2 μL/well 2× substrate/ATP solution to initiate kinase reactions. Centrifuge at 1000 rpm for 1 min. Incubate at room temperature for 180 min.Final concentrations of components in the assay:[VEGFR2]=5 nM;[ATP]=1.2 mM;[Srctide]=1 mg/mL;[DMSO] G; 1%.Step 4. Quench: Add 2 uL/well ADP Glo Reagent+0.05% CHAPS. […] Centrifuge at 1000 rpm for 1 min; Incubate at room temperature for 1 hour; Read Luminescence on a plate reader.

Vascular endothelial growth factor receptor 2, sequence (P35968 whole entry): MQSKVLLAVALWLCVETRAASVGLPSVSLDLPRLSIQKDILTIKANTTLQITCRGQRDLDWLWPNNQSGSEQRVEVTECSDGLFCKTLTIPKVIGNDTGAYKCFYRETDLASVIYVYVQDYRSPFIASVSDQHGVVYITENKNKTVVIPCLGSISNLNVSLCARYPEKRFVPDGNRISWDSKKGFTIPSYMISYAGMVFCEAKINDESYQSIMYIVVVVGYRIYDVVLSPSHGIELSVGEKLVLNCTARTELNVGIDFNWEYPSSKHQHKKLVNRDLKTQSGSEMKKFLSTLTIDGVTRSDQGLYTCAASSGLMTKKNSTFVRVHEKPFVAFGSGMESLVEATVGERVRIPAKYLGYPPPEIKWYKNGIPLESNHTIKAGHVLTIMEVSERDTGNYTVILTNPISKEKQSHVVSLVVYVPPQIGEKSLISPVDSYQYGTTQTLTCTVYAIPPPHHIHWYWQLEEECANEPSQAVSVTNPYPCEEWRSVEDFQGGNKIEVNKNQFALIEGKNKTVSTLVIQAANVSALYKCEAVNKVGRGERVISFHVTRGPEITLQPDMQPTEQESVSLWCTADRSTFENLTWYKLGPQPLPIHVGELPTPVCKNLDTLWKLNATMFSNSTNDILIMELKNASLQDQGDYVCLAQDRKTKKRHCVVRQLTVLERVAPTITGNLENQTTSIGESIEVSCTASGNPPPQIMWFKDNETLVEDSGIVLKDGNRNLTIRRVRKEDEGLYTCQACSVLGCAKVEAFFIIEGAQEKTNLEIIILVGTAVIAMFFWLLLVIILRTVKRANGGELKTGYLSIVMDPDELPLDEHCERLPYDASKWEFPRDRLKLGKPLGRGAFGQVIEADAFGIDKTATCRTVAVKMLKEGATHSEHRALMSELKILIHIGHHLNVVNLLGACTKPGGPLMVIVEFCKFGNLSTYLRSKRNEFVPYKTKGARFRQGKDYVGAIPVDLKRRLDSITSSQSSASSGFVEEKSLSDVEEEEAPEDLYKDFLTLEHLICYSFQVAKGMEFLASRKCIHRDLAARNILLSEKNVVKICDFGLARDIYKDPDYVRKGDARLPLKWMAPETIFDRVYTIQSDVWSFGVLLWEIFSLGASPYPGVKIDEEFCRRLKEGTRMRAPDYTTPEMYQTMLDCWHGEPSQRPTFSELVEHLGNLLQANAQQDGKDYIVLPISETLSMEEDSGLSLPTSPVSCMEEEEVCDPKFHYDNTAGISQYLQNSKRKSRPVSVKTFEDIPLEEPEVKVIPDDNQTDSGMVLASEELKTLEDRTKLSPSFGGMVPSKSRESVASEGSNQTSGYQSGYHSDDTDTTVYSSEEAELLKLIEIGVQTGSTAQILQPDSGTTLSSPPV
Platelet-derived growth factor receptor beta, sequence (P09619 whole entry): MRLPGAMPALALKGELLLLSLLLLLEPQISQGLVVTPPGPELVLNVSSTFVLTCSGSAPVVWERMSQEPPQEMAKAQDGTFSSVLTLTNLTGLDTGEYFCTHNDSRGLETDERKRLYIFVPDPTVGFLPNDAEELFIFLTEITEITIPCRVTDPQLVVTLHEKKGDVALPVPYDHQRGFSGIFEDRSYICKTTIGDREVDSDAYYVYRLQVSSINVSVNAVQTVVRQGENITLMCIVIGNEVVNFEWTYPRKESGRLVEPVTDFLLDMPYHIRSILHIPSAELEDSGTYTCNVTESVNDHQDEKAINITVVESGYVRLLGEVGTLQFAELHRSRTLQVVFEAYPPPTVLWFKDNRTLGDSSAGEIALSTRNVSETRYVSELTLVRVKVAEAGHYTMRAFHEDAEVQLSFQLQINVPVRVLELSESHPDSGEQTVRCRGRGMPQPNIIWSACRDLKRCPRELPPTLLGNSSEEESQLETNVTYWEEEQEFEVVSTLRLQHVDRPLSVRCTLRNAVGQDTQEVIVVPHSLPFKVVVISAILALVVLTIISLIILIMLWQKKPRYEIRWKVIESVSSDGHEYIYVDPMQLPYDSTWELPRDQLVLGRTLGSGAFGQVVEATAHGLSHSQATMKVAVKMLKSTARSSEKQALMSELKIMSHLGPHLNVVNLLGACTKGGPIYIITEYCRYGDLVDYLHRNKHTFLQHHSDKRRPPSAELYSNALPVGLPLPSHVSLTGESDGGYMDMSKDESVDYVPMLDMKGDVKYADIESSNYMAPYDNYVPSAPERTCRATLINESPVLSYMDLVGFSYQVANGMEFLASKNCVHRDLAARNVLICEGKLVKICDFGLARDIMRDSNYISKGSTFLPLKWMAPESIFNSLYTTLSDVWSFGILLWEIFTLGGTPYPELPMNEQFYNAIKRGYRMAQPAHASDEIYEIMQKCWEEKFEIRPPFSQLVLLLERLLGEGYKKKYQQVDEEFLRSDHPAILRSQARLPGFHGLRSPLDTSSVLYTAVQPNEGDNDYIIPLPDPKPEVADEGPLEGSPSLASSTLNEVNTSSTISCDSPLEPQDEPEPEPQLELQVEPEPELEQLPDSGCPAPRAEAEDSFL

CCOC1CN(CC(=O)Nc2cnc(C)c(NC(=O)c3cnn4cc(-c5cccnc5OC)sc34)c2)C1 [US20240109917, Example 401] was tested, and the IC50 [1] was 0.3 nM and the IC50 [2] was over 7500 nM.
